According to US6852750B2, “Benzenedicarboxylic acid derivatives” (Guilford Pharmaceuticals, Inc., priority 2000, dated 2005):

Assays:
[1] = tested on: cortical cell cultures; assay: In vitro assay on ischemia (cortical cell cultures, potassium cyanide and 2-deoxyglucose); type: cell-based; settings: 1 h, read-out: EC50 (neuroprotective effect)
Experimental: In Vitro Assay on Ischemia
To examine the in vitro effect of the compounds of formula I on ischemia, cortical cell cultures were treated with various compounds of formula I during an ischemic insult utilizing potassium cyanide and 2-deoxyglucose, and for one hour thereafter (for experimental details, see Vomov et al., J. Neurochem., Vol. 65, No. 4, pp. 1681-1691 (1995)).

[2] = tested on: rats subjected to middle cerebral artery occlusion; assay: Neuroprotective effect in MCAO rats with TGF-β neutralizing antibodies; type: in vivo; settings: FIG. 5
From the text: The effect of TGF-β neutralizing antibodies on the neuroprotective effect of Compound C was also studied in rats following MCAO.
One of ordinary skill in the art can appreciate that the regulation of TGF-β's by NAALADase inhibitors may have implications not only in stroke, but also in other diseases, disorders and conditions including, without limitation, neurological diseases, psychiatric diseases, demyelinating diseases, prostate cancer, inflammation, and angiogenesis.

[3] = tested on: ischemic cell cultures; assay: Neuroprotective effect in ischemic cell cultures with neutralizing antibodies; type: cell-based; settings: in vitro ischemia model
Experimental: TGF-β neutralizing antibodies were then added to the ischemic cell cultures.

[4] = tested on: chronic constrictive injury-induced rats; assay: Neuropathic pain progression, CCI model (sciatic nerve ligation, Hargreaves); type: in vivo; settings: 50 mg/kg i.p. daily starting 10 days post surgery, vs vehicle, significant from 11 days of treatment, FIG. 14
Experimental: In Vivo Assay of NAALADase Inhibitors on Neuropathic Pain Progression CCI Model
Sciatic nerve ligation, consisting of 4 ligatures tied loosely around the sciatic nerve at 1 mm intervals proximal to the nerve trifurcation, was performed on rats. […] The rats were habituated to a Hargreaves apparatus. An infrared heat source was directed onto the dorsal surface of each rat's hindpaws and the time taken for the rat to withdraw its paws was noted. The difference in scores between the latency of the response for the paw on the operated side versus the paw on the unoperated control side was determined.
Animals received Compound C (50 mg/kg i.p. daily) or vehicle, starting 10 days post surgery. […] Normal (unoperated) rats had approximately equal latencies for both paws. This effect was significant starting at 11 days of drug treatment and persisted through to the end of the study (for 21 days of daily dosing).

[5] = tested on: TGF-β1; assay: TGF-β1 levels in rats subjected to MCAO (microdialysis); type: in vivo; settings: FIG. 6
[6] = tested on: TGF-β2; assay: Effect on TGF-β2 in in vitro ischemia model; type: cell-based; settings: ischemic cell cultures, FIG. 2
Experimental: (§1) Effect of NAALADase Inhibition on TGF-β in In Vitro Ischemia Model
(§2) A NAALADase inhibitor, Compound C, was added to ischemia cell cultures to determine its effect on TGF-β levels during stroke. The experimental data, set forth

[7] = tested on: TGF-β1; assay: Effect on TGF-β1 in in vitro ischemia model; type: cell-based; settings: ischemic cell cultures, FIG. 1
Experimental: as §1, §2

[8] = tested on: STZ-induced diabetic rats; assay: In vivo assay on neuropathic pain, STZ-diabetic rats (Hargreaves thermal nociception); parameters: species or system Sprague-Dawley rats; settings: 10 mg/kg i.p. daily, FIGS. 13A and 13B
Experimental: In Vivo Assay of NAALADase Inhibitors on Neuropathic Pain
Male Sprague-Dawley rats (200-225 g) were rendered diabetic by intravenous administration of streptozotocin (“STZ”, 70 mg/kg in phosphate buffered saline). Diabetic animals were divided into five groups: one group receiving Compound A (10 mg/kg or 1 mg/kg), Compound D (10 mg/kg or 1 mg/kg) or vehicle. Another group of animals (non-STZ treated) served as non-diabetic controls. Drug/vehicle treatment was started in diabetic animals 45 days post-STZ administration. STZ-induced diabetic rats were tested for sensitivity to a heat source as soon as blood glucose levels rose to 320 mg/dl or above (30 days post STZ). The rats were then acclimated to the Hargreaves apparatus and thermal nociception was monitored using an infrared heat source directed into the dorsal surface of the hindpaw, and the time taken for the animal to remove its paw noted to the nearest 0.1 seconds (for detailed method, see Hargreaves et al., J. Biol. Chem. (1988) 263(36):19392-7). The intensity of the beam source was adjusted such that the mean latency for control animals (non-STZ treated) was approximately 10 seconds. Each animal was tested 8 times and the mean difference score (between mean non-diabetic control latency and mean diabetic latency) are graphically presented in FIGS. 13A and 13B.

[9] = tested on: STZ-diabetic rats; assay: In vivo assay on diabetic neuropathy: motor and sensory nerve conduction velocity in STZ-diabetic rats; settings: vs diabetic controls; for sensory nerve conduction velocity / motor nerve conduction velocity: 10 mg/kg daily; for sensory nerve conduction velocity: significant after 8 weeks (Compound A) or 12 weeks (Compound D); for motor nerve conduction velocity: significant after 12 weeks
Experimental: In Vivo Assay of NAALADase Inhibitors on Diabetic Neuropathy
Motor and sensory nerve conduction velocity was also measured in STZ-diabetic animals after 4, 8 and 12 weeks of treatment. For detailed method, see De Koning et al., Peptides 1987 May-Jun. 1987; 8(3):415-22. Briefly, stimulating needle electrodes were inserted close to the sciatic and tibial nerves with recording electrodes being placed subcutaneously over the distal foot muscles, in anesthetized rats.

[10] = tested on: BB/W diabetic rats; assay: Withdrawal latency in BB/W diabetic rats (Hargreaves); type: in vivo; settings: 10 mg/kg i.p. daily, vs diabetic vehicle-treated rats, from 4 weeks through six months, FIG. 17
From the text: (§3) Male BB/W rats (BRI, Mass) spontaneously develop a cell mediated autoimmune destruction of pancreatic B cells, resulting in onset of insulin-dependent (Type I) diabetes (Awata and Guberski et al., Endocrinology 1995 December; 136(12):5731-5). […] This renders them valuable for experimental trials of new compounds for future treatments of this major disorder. In the present study, Compound D and Compound A were examined for their ability to alter the progression of diabetic neuropathy. The rats received daily injection of Compound D or Compound A (10 mg/kg i.p.) or vehicle, starting at the onset of diabetes (hyperglycemia) and up to 6 months thereafter. Another group of non-diabetic rats also receiving vehicle were tested. All animals were continuously monitored for body weight, urine volume, blood sugar and glycated haemoglobin. In the first month of the study, all animals were tested for thermal nociception in a Hargreaves apparatus, weekly. After the first month this was done biweekly and then monthly. The testing consists of directing an infrared heat source onto the dorsal surface of the rat hindpaw and noting the time taken for the animal to remove its paw (for detailed method, see Hargreaves et al., J. Biol. Chem. 1988 Dec. 25; 263(36):19392-7). Each animal was tested 8 times and the mean withdrawal latency noted.

[11] = tested on: BB/W diabetic rats; assay: Nerve conduction velocity in BB/W diabetic rats; type: in vivo; settings: 10 mg/kg daily, vs diabetic vehicle controls, from 8 weeks to six months, FIG. 18
From the text: as §3, with “The testing consists of directing an infrared heat source onto the dorsal surface of the rat hindpaw and noting the time taken for the animal to remove its paw (for detailed method, see Hargreaves et al., J. Biol. Chem. 1988 Dec. 25; 263(36):19392-7). Each animal was tested 8 times and the mean withdrawal latency noted.” left out
Nerve conduction velocity was also measured every two weeks through the first eight weeks of treatment and every month thereafter through to the six months of treatment. […]

Q: `O=C(O)c1cc(C(=O)O)cc(C(=O)NO)c1` [Compound 39, 5-[(hydroxyamino)-carbonyl]-1,3-benzenedicarboxylic acid] was tested. Which EC50 [1] did it give?
A: 473 nM

Q: What does the source list for `O=C(O)CCC(CP(=O)(O)O)C(=O)O` (centres unmarked) [Compound C, 2-(phosphonomethyl)pentanedioic acid]?
A: neuroprotective effect in vivo with TGF-β neutralizing antibodies [2]: significantly attenuated; neuroprotective effect with TGF-β neutralizing antibodies added ([3]; FIG. 3): blocked; neuroprotective effect with FGF antibody added ([3]; FIG. 4): did not block; difference scores between the two paws (withdrawal latency) [4]: dramatically normalized; TGF-β1 levels during occlusion and reperfusion [5]: significant rise; TGF-β2 concentrations [6]: increased concentrations; TGF-β1 concentrations [7]: increased concentrations

Q: Which results are given for `O=C(O)CCC(CCS)C(=O)O` (centres unmarked) [Compound D, 2-(2-sulfanylethyl)pentanedioic acid]?
A: hyperalgesic response (withdrawal latency difference score) [8]: completely reversed; motor and sensory nerve conduction velocities ([9]; 1 mg/kg dose): increased; sensory nerve conduction velocity [9]: increased; motor nerve conduction velocity [9]: increased; withdrawal latency [10]: longer withdrawal latencies; nerve conduction velocity [11]: significantly less severe nerve conduction deficits

Q: With `O=C(O)c1ccc(OCCCSSCCCOc2ccc(C(=O)O)cc2C(=O)O)c(C(=O)O)c1` [Compound 19, 4-[3-[[3-(2,4-dicarboxyphenoxy)propyl]-dithio]propoxy]-1,3-benzenedicarboxylic acid] as the compound, how does the EC50 [1] read?
A: 2490 nM

Q: `O=C(O)c1ccc(CCS)c(C(=O)O)c1` [Compound 22, 4-(2-mercaptoethyl)-1,3-benzenedicarboxylic acid] was tested. Which EC50 [1] did it give?
A: 60 nM

Q: How did the EC50 [1] turn out when `O=C(O)c1cc(OCCCS)cc(C(=O)O)c1` [Compound 36, 5-(3-mercaptopropoxy)-1,3-benzenedicarboxylic acid] was run?
A: 1240 nM

Q: `O=C(O)c1cc(CS)cc(C(=O)O)c1` [Compound 41, 5-mercaptomethyl-1,3-benzenedicarboxylic acid] was tested. Which EC50 [1] did it give?
A: 172 nM

Q: With `O=C(O)CCC(CP(=O)(O)Cc1c(F)c(F)c(F)c(F)c1F)C(=O)O` (centres unmarked) [Compound A, 2-[[(2,3,4,5,6-pentafluorobenzyl)hydroxyphosphinyl]methyl]pentanedioic acid] as the compound, how does the “hyperalgesic response (withdrawal latency difference score)” value [8] read?
A: completely reversed

Q: What about the “sensory nerve conduction velocity” value [9] of the same compound?
A: significant improvement

Q: And the “motor nerve conduction velocity” value [9]?
A: significant improvement

Q: And the withdrawal latency [10]?
A: longer withdrawal latencies

Q: What about the nerve conduction velocity [11] of the same compound?
A: significantly less severe nerve conduction deficits
